Values quoted from earlier work, collected in patent publication US12576064B2, “Urolithin gummy (pectin) formulations” (Amazentis SA, priority 2023, dated 2026).

Test system: myotubes
Settings: in vitro

| SMILES | mean diameter of myotubes |
| --- | --- |
| O=c1oc2cc(O)ccc2c2ccc(O)cc12 [Urolithin A] | not seen |
| O=c1oc2cc(O)ccc2c2ccccc12 [Urolithin B] | increased |
